pIC50: −log10 of the molar value. Read-outs that look alike come from different tables or passages of the source.
Key:
[1] = test system: E protein binding; experiment: EMSA on whole cell lysates from HCT116 cells; assay type: cell-based; conditions: 24 hours treatment
Protocol: Electrophoretic mobility shift assays. To test the activity of compounds identified in the in silico screen, full-length E47 was purified from bacteria and mixed with a P^32 labeled E-box sequence derived from the muscle creatine kinase (MCK) enhancer, BSA, DTT, poly dI-dC, salmon sperm, and HeLa nuclear extract, in the presence or absence of purified full-length Id1. Increasing concentrations of the various test compounds dissolved in DMSO or DMSO alone were added to the reaction mixes for 30 minutes, resolved on a 5% non-denaturing polyacrylamide gel, and autoradiographed. Electrophoretic mobility shift assays (EMSAs) were carried out on whole cell lysates from AGX51-treated cells and the EMSA was performed as described previously (Tournay and Benezra, Mol Cell Biol, 16: 2418-30 (1996)).
Without being bound by theory, it was hypothesized that loss of Id proteins in response to AGX51 should result in an increase in E protein binding activity assuming little interference of the compound with the E proteins themselves. […] To determine if loss of Id activity precedes Id protein loss, EMSAs were carried out using cell lysates from HCT116 cells treated with AGX51 for one hour.

[2] = test system: EGI-1; experiment: Cholangiocarcinoma cell viability, EGI-1; assay type: cell-based
Protocol: Cell viability assays. Cell lines were seeded in a 96 well plate (5000 cells per well). After overnight incubation, cells were treated with AGX51 and incubated for 24 hours then MTT reagent (5 mg/mL) was added per well and the cells were incubated for four hours. Following incubation, media was aspirated and 200 μL DMSO was added per well. Absorbance was then measured at 570 nm using a plate reader (Synergy 2, BioTek). Cell growth profiles were determined by seeding 38,000 cells in a 24-well plate, in triplicate for each time point, and counting the cells on days 1, 3 and 5 after seeding, using trypan blue exclusion of dead cells.
The effects of AGX51 and AGX-A on cholangiocarcinoma cell viability were assessed for the six different cholangiocarcinoma cell lines. The measured IC50 values (in μM) from these studies are provided in Table 2 below, along with the ratio of the AGX51 IC50 to the AGX-A IC50 to aid in comparison.

[3] = test system: MCF-7; experiment: MTT assay, MCF-7; assay type: cell-based; conditions: Homo sapiens, MCF7, 24 h, MCF-7, ER +ve cell line, read-out: IC50 value after 24 hours of treatment
From the text: The 4T1 murine mammary tumor cell line and nine breast cancer cell lines representing the major breast cancer subtypes (ER+, HER2+, and TNBC) including MDA-MB-157, MDA-MB-436, MDA-MB-231, MDA-MB-453, MDA-MB-361, BT-474, SK-BR-3, MCF-7 and T47-D will be grown in RPMI or DMEM (Dulbecco's Modified Eagle Medium) media supplemented with 10% FBS (fetal bovine serum), 1% penicillin-streptomycin and 1% L-Glutamine. Patient derived xenograft cell lines BR7, BR11, and IBT will be established directly from breast cancer bone metastases specimens surgically resected from patients with informed consent. BR7 and BR11 specimens will be obtained from ER positive (HER2 negative and PR negative) metastatic breast cancer patients, while the IBT specimen will be obtained from a metastatic, triple negative breast cancer patient. Fresh tumor tissues will be quickly washed with ice cold PBS and minced into about 1-3 mm pieces in MEM medium (without FBS) using sterile razor blades. […] The cells will be treated with either 100 μM DMSO, AGX51, or a compound of the present technology such as AGX-A. The cell morphology and growth will be monitored daily for 1 week by microscopy for changes in morphology or cell death. […] Absorbance will then measured at 570 nm using a plate reader (Synergy 2, BioTek). […]

[4] = test system: choroidal neovascularization; experiment: Laser-induced choroidal neovascularization (CNV) model of AMD; assay type: in vivo, mouse
From the text: Mouse mode/s of ocular neovascularization. CNV was induced as previously described. Tobe et al., Am. J. Pathol., 153, 1641-1646 (1998). Briefly, 4-6 week-old female Id1^−/− or Id3^−/− mice and littermate control Id1^+/+ or Id3^+/+ mice (all in C57BL/6 background) had laser-induced rupture of Bruch's membrane at three locations in each eye and after 14 days mice were euthanized, eyes were removed, and choroidal flat mounts were stained with FITC-labeled Griffonia simplicifolia lectin (Vector Laboratories, Burlingame, Calif.) which selectively stains vascular cells (n=12 mice per group). Flat mounts were examined by fluorescence microscopy and the area of each CNV was measured by image analysis with Image-Pro Plus software (Media Cybernetics, Silver Spring, Md.) by an observer masked with respect to experimental groups. In other experiments, wild type 4-6 week-old, female, C57BL/6 mice had rupture of Bruch's membrane in each eye followed by intravitreal injection of 1-30 μg of AGX51 (racemic, E1 or E2) or vehicle in one eye immediately and after 7 days or mice were given twice daily i.p. injections of 500 μg of AGX51 or vehicle for 14 days (n=7-10 mice per group). The area of CNV was measured 14 days after rupture of Bruch's membrane. For Aflibercept and AGX-A treatment experiments, rupture of Bruch's membrane was carried out and then mice were treated with 40 μg of Aflibercept, 10 μg of AGX51E2, 1-5 μg of AGX51, 1-5 μg of AGX-A, DMSO or combinations. The mice were 4-6 week-old female C57BL/6. After 14 days, the mice were euthanized and CNV was measured as described above.

CCC(=O)N(CCC(c1ccc2c(c1)OCO2)c1ccccc1OC)Cc1ccccc1 (racemic) [AGX51, N-(3-(benzo[d][1,3]dioxol-5-yl)-3-(2-methoxyphenyl)propyl)-N-benzylpropionamide]
E protein binding in cell lysates [1]: small increase in E protein binding
pIC50 ([2]; Homo sapiens): 4.80
pIC50 [3]: 4.22
CNV area relative to vehicle control ([4]; i.p. 50 μL of 10 mg/mL bid, day 14): reduced CNV area significantly
CNV area ([4]; intravitreal 5 μg, days 1 and 7, p<0.05): effective at significantly reducing CNV
Id1 immunofluorescence in CNV regions ([4]; intravitreal injection): no Id1 positive cells
CNV area relative to vehicle ([4]; twice daily i.p. injections (~30 mg/kg), p<0.05): significantly reduced CNV
CNV area relative to vehicle ([4]; two intravitreal injections of 10 μg (2 h and 7 days), day 14, p<0.05): significantly suppressed CNV

COc1ccccc1C(CCNCc1ccccc1)c1ccc(OC(C)C)cc1 (centres unmarked) [AGX-A, N-benzyl-3-(4-isopropoxyphenyl)-3-(2-methoxyphenyl)propan-1-anine]
(AGX51 IC50)/(AGX-A IC50) [2]: 3.49
pIC50 [2]: 5.35
CNV area, AGX-A vs AGX51 ([4]; intravitreal 1 μg dose): performed better than AGX51
